What was measured:
PBMCs = assay: Peptide recognition assay in PBMCs (IFN-γ in supernatant, 7 days); type: cell-based, human; settings: 10e4 PBMC/well co-cultured with the peptide for 7 days, supernatant tested
Experimental: (§1) Peptides from tumor-associated antigens (TAAs), listed in Table 5 were placed at 1 ug/well in duplicates using anti-CD3 at 30 ng/mL as well as PHA at 5 μg/mL as positive controls.
(§2) The differences in TIL versus PBMCs can also be defined by peptide reactivity. 10e^4 TIL or 10e^4 PBMC/well were co-cultured with the peptides listed in Table 11 below for 7 days and the supernatants were tested for IFN-γ production.

TIL = assay: Peptide recognition assay in TIL (IFN-γ ELISA / IL-17 in supernatant, 7 days); type: cell-based, human; set-up: IFN-γ production, TIL: unit not given here; settings: for IFN-γ production, TIL: 10e4 TIL/well co-cultured with the peptide for 7 days, supernatant tested; for Pancreatic TIL D1599 IFN-y / Pancreatic TILD1599 IL 17: Pancreatic TIL D1599
Experimental: as §1, §2

Row | Sequence | IFN-γ production, PBMCs (PBMCs) | IFN-γ production, TIL (TIL) | Pancreatic TIL D1599 IFN-y (TIL) | Pancreatic TILD1599 IL 17 (TIL)
1 | ALACWGVRGSLLSEA | 0 | 0 |  | 
2 | ALACWGVRGSLLSEA [Mesothelin MPF-12] |  |  | 0 pg/mL | 0 pg/mL
3 | DILDTAGLEEYSAMR | 0 | 0 |  | 
4 | DILDTAGLEEYSAMR [KRAS_Q61L] |  |  | 24 pg/mL | 0 pg/mL
5 | ELNNALQNL | 0 | 6 |  | 
6 | ELNNALQNL [ESAT6, reference compound] |  |  | 0 pg/mL | 0 pg/mL
7 | FVAESAEVLLPRLVS | 0 | 0 |  | 
8 | FVAESAEVLLPRLVS [Mesothelin MPF-14] |  |  | 0 pg/mL | 0 pg/mL
9 | GIPFIETSAKTRQRVED [Kras_P14 (A146 WT)] |  |  | 0 pg/mL | 0 pg/mL
10 | GIPFIETSTKTRQRVED | 0 | 85 |  | 
11 | GIPFIETSTKTRQRVED [Kras_P15 (A146T)] |  |  | 0 pg/mL | 0 pg/mL
12 | HRLSEPPEDLDALPL | 0 | 0 |  | 
13 | HRLSEPPEDLDALPL [Mesothelin MPF-8] |  |  | 0 pg/mL | 0 pg/mL
14 | IPFIETSVKTRQRVE [KRAS_A146V] |  |  | 5 pg/mL | 0 pg/mL
15 | KLVVVGAGDVGKSALTI | 0 | 0 |  | 
16 | KLVVVGAGDVGKSALTI [Kras_P9 (G13D)] |  |  | 0 pg/mL | 3 pg/mL
17 | KLVVVGAGGVGKSALTI | 0 | 0 |  | 
18 | KLVVVGAGGVGKSALTI [Kras_P8 (G13 WT)] |  |  | 0 pg/mL | 108 pg/mL
19 | KLVVVGAVGVGKSAL | 0 | 0 |  | 
20 | KLVVVGAVGVGKSAL [KRAS_G12F] |  |  | 36 pg/mL | 0 pg/mL
21 | LAFQPPISNHPAPEY | 0 | 0 |  | 
22 | LAFQPPISNHPAPEY [SMAD4 [D1 private peptide]] |  |  | 0 pg/mL | 0 pg/mL

Row | Sequence | IFN-γ production, PBMCs (PBMCs) | IFN-γ production, TIL (TIL) | Pancreatic TIL D1599 IFN-y (TIL) | Pancreatic TILD1599 IL 17 (TIL)
23 | LDILDTAGHEEYSAMRD | 0 | 0 |  | 
24 | LDILDTAGHEEYSAMRD [Kras_P12 (Q61H)] |  |  | 0 pg/mL | 4 pg/mL
25 | LDILDTAGKEEYSAMRD | 0 | 0 |  | 
26 | LDILDTAGKEEYSAMRD [Kras_P11 (Q61K)] |  |  | 0 pg/mL | 0 pg/mL
27 | LDILDTAGQEEYSAMRD | 0 | 0 |  | 
28 | LDILDTAGQEEYSAMRD [Kras_P10 (Q61 WT)] |  |  | 0 pg/mL | 0 pg/mL
29 | LDILDTAGREEYSAMRD | 0 | 150 |  | 
30 | LDILDTAGREEYSAMRD [Kras_P13 (Q61R)] |  |  | 0 pg/mL | 0 pg/mL
31 | LDVLYPKARLAFQNM [Mesothelin GPI P14] |  |  | 0 pg/mL | 11 pg/mL
32 | LLPRGAPERQRLLPA [Mesothelin MPF-11] |  |  | 0 pg/mL | 0 pg/mL
33 | LQGGIPNGYLVLDLS [Mesothelin GPI P40 (596-610)] |  |  | 0 pg/mL | 0 pg/mL
34 | LVVVGAGAVGKSALT [KRAS_G13A] |  |  | 19 pg/mL | 0 pg/mL
35 | LVVVGAGCVGKSALT [KRAS_G13C] |  |  | 26 pg/mL | 0 pg/mL
36 | LVVVGAGRVGKSALT [KRAS_G13R] |  |  | 29 pg/mL | 0 pg/mL
37 | LVVVGAGSVGKSALT [KRAS_G13S] |  |  | 24 pg/mL | 0 pg/mL
38 | LVVVGAGVVGKSALT [KRAS_G13V] |  |  | 10 pg/mL | 0 pg/mL
39 | LVVVGAVGVGKSALT [KRAS fitted for HLA-DQB1*06:02] |  |  | 0 pg/mL | 0 pg/mL
40 | MALPTARPLLGSCGT [Mesothelin MPF-1] |  |  | 0 pg/mL | 0 pg/mL
41 | MQEALSGTPCLLGPG [Mesothelin GPI P40 (601-605)] |  |  | 0 pg/mL | 120 pg/mL
42 | PMVLVGNNCDLPSRT [KRAS_K117N] |  |  | 32 pg/mL | 0 pg/mL
43 | PVTSLSSASTGDTTP [MUC4-P4 [WT]] |  |  | 17 pg/mL | 0 pg/mL
44 | PVTSPSSASTGHAIP [MUC4-P10 [WT]] |  |  | 5 pg/mL | 0 pg/mL

Row | Sequence | IFN-γ production, PBMCs (PBMCs) | IFN-γ production, TIL (TIL) | Pancreatic TIL D1599 IFN-y (TIL) | Pancreatic TILD1599 IL 17 (TIL)
45 | PVTSPSSESTGHAIP [MUC4-P9 [Mut]] |  |  | 0 pg/mL | 0 pg/mL
46 | PVTSTSSASTGHATP [MUC4-P8 [WT]] |  |  | 0 pg/mL | 2 pg/mL
47 | PVTSTSSVSTGHATP [MUC4-P7 [Mut][WT]] |  |  | 0 pg/mL | 0 pg/mL
48 | SVSTMDALRGLLPVL [Mesothelin MPF-17] |  |  | 0 pg/mL | 0 pg/mL
49 | TLGEFLKLDRERAKN [Survivin (97-111)] |  |  | 0 pg/mL | 0 pg/mL
50 | TPLPVTDASSASTGH [MUC4-P1 [Mut][WT]] |  |  | 0 pg/mL | 3 pg/mL
51 | TPLPVTDNSSASTGD [MUC4-P11 [Mut]] |  |  | 19 pg/mL | 0 pg/mL
52 | TPLPVTDTSSASTGD [MUC4-P12 [WT]] |  |  | 34 pg/mL | 0 pg/mL
53 | TPLPVTDTSSASTGH [MUC4-P2 [WT]] |  |  | 0 pg/mL | 1 pg/mL
54 | TTPLPVTIPSSASSG [MUC4-P5 [Mut][WT]] |  |  | 12 pg/mL | 0 pg/mL
55 | TTPLPVTSPSSASSG [MUC4-P6 [WT]] |  |  | 0 pg/mL | 0 pg/mL
56 | VTDASSASTGH [MUC4-P2_fitted for HLA-A*01:01] |  |  | 0 pg/mL | 14 pg/mL
57 | VTDTSSASTGH [MUC4-P1_fitted for HLA-A*01:01] |  |  | 0 pg/mL | 24 pg/mL
58 | WAVRPQDLDTCDPRQ [Mesothelin GPI P13] |  |  | 0 pg/mL | 0 pg/mL
59 | YEQLDVLKHKLDELY [Mesothelin GPI P5] |  |  | 0 pg/mL | 0 pg/mL
60 | YKLVVVGAAGVGKSALT [Kras_P7 (G12A)] |  |  | 0 pg/mL | 65 pg/mL
61 | YKLVVVGACGVGKSALT [Kras_P6 (G12C)] |  |  | 0 pg/mL | 0 pg/mL
62 | YKLVVVGADGVGKSALT [Kras_P3 (G12D)] |  |  | 0 pg/mL | 0 pg/mL
63 | YKLVVVGAGGVGKSALT [Kras_P1 (G12 WT)] |  |  | 0 pg/mL | 37 pg/mL
64 | YKLVVVGARGVGKSALT [Kras_P4 (G12R)] |  |  | 0 pg/mL | 0 pg/mL
65 | YKLVVVGASGVGKSALT [Kras_P5 (G12S)] |  |  | 14 pg/mL | 0 pg/mL
66 | YKLVVVGAVGVGKSALT [Kras_P2 (G12V)] |  |  | 0 pg/mL | 2 pg/mL
